Experiments:
Assay in all cases: biochemical
Set-up in all cases: Thermo Fisher in vitro kinase panel, per cent inhibition of kinase activity at 10 uM
ABL2 (Arg) = ABL2 (Arg) (Homo sapiens, UniProt P42684)
Experimental: (§1) Kinase profiling of SMER28 and analogs SMER28 and analogs were tested at 10 µM in a panel of 123 kinases at ThermoFisher Scientific. Follow-up of selected kinases for SMER28 and analogs was also performed at ThermoFisher Scientific. Data are shown in Supplementary Data 2 and 3. […] An inhibition of PIK3C could induce autophagy, mediated by signaling through the AKT/mTOR axis[45].

AKT1 (PKB alpha) = AKT1 (PKB alpha) (Homo sapiens, UniProt P31749)
Experimental: as §1

AKT2 (PKB beta) = AKT2 (PKB beta) (Homo sapiens, UniProt P31751)
Experimental: as §1

AMPK A2/B1/G1 = biological target: T1, AMPK A2/B1/G1 (Homo sapiens, UniProt P54646)
T1 construct: gene PRKAA2
Experimental: as §1

CAMK1 (CaMK1) = CAMK1 (CaMK1) (Homo sapiens, UniProt Q14012)
Experimental: as §1

CDK2/cyclin A = CDK2/cyclin A (Homo sapiens, UniProt P24941)
Experimental: as §1

DNA-PK = biological target: T2, DNA-PK (Homo sapiens, UniProt P78527)
T2 construct: gene PRKDC
Experimental: as §1

ERBB2 (HER2) = ERBB2 (HER2) (Homo sapiens, UniProt P04626)
Experimental: as §1

ERBB4 (HER4) = ERBB4 (HER4) (Homo sapiens, UniProt Q15303)
Chain of ERBB4 (HER4) (Q15303 whole entry): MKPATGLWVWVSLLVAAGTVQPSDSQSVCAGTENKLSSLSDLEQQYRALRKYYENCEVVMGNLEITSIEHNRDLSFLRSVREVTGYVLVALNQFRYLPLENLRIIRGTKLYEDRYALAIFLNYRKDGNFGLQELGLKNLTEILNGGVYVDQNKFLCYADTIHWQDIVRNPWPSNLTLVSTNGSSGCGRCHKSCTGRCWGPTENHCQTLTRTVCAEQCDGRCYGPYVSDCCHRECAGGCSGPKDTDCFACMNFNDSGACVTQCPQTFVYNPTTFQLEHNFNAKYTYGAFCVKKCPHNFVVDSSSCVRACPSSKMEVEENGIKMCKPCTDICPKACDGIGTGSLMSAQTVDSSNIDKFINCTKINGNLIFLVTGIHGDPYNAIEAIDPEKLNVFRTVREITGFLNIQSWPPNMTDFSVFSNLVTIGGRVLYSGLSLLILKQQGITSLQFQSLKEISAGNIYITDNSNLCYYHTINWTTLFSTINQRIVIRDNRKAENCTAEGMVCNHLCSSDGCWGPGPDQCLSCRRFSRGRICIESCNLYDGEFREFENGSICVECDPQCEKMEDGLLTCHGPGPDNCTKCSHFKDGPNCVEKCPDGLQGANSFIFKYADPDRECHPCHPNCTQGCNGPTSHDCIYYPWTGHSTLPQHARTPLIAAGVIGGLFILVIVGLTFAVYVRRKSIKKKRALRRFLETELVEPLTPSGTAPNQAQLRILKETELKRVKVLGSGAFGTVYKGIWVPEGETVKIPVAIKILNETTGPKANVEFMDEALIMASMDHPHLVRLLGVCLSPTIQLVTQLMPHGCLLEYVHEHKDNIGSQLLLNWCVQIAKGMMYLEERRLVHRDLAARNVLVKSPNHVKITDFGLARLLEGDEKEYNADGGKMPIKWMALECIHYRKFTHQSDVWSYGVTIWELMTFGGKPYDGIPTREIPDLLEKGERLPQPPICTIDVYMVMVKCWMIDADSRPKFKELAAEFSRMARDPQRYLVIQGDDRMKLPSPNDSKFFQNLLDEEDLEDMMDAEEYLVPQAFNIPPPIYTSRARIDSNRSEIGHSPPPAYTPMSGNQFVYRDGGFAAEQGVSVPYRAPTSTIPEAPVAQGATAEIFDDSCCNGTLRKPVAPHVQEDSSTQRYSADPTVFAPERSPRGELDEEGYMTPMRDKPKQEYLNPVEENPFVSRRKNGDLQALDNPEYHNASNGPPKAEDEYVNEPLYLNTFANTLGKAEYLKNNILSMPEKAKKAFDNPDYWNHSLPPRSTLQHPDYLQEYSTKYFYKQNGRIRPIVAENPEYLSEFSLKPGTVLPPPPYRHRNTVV
Experimental: as §1

FER = FER (Homo sapiens, UniProt P16591)
Chain of FER (P16591 whole entry): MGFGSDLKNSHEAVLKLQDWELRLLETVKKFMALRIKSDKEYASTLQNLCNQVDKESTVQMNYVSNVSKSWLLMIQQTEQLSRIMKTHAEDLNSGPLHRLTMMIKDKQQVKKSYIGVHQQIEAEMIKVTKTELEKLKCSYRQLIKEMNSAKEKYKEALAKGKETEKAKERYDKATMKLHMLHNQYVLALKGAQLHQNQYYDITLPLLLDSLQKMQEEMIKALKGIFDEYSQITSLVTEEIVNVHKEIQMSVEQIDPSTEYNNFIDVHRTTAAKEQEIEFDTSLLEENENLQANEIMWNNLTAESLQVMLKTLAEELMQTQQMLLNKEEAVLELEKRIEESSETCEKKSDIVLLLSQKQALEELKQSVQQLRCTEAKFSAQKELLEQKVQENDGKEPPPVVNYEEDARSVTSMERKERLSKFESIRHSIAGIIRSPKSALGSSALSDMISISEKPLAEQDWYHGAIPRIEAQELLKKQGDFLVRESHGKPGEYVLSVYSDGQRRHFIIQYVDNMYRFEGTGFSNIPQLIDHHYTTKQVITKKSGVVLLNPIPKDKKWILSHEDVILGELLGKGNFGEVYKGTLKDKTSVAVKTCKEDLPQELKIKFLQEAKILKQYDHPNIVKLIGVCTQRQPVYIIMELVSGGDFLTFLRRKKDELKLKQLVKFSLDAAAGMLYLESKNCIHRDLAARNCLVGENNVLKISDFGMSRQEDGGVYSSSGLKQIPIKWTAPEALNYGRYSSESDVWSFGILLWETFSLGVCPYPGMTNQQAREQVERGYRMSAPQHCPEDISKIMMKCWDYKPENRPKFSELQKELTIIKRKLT
Experimental: as §1

FLT3 = FLT3 (Homo sapiens, UniProt P36888)
Experimental: as §1

GSK3B (GSK3 beta) = GSK3B (GSK3 beta) (Homo sapiens, UniProt P49841)
Experimental: as §1

[1] = biological target: MAP3K7/MAP3K7IP1 (TAK1-TAB1) (Homo sapiens, UniProt O43318)
Experimental: as §1

MINK1 = MINK1 (Homo sapiens, UniProt Q8N4C8)
Experimental: as §1

PAK7 (KIAA1264) = biological target: T3, PAK7 (KIAA1264) (Homo sapiens, UniProt Q9P286)
T3 construct: gene PAK5
T3 sequence (Q9P286 whole entry): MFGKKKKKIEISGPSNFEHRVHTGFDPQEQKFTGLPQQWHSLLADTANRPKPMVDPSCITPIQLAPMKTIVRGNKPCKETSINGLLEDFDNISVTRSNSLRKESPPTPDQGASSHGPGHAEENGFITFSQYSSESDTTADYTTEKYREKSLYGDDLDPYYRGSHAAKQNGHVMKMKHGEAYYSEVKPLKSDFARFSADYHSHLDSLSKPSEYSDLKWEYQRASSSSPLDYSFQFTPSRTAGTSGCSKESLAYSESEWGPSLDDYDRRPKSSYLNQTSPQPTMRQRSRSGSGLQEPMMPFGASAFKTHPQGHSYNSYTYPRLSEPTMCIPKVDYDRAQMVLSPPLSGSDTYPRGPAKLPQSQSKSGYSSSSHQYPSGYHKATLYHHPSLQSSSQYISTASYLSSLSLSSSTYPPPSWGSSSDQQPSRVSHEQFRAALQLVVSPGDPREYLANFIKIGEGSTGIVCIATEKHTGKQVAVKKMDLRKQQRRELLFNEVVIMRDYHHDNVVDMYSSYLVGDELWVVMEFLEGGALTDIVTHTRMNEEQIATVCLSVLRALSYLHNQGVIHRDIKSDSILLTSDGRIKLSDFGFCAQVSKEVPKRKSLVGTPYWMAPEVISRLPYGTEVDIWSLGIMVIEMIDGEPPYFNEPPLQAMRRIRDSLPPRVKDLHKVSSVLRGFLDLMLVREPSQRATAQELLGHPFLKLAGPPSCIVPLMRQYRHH
Experimental: as §1

PDK1 = biological target: T4, PDK1 (Homo sapiens, UniProt O15530)
T4 construct: gene PDPK1
Experimental: as §1

[2] = biological target: PIK3CB/PIK3R1 (p110 beta/p85 alpha) (Homo sapiens, UniProt P42338)
Experimental: as §1

PIK3CG (p110 gamma) = PIK3CG (p110 gamma) (Homo sapiens, UniProt P48736)
Experimental: as §1

PRKACA (PKA) = PRKACA (PKA) (Homo sapiens, UniProt P17612)
Experimental: as §1

PRKCA (PKC alpha) = PRKCA (PKC alpha) (Homo sapiens, UniProt P17252)
Experimental: as §1

PRKCE (PKC epsilon) = PRKCE (PKC epsilon) (Homo sapiens, UniProt Q02156)
Chain of PRKCE (PKC epsilon) (Q02156 whole entry): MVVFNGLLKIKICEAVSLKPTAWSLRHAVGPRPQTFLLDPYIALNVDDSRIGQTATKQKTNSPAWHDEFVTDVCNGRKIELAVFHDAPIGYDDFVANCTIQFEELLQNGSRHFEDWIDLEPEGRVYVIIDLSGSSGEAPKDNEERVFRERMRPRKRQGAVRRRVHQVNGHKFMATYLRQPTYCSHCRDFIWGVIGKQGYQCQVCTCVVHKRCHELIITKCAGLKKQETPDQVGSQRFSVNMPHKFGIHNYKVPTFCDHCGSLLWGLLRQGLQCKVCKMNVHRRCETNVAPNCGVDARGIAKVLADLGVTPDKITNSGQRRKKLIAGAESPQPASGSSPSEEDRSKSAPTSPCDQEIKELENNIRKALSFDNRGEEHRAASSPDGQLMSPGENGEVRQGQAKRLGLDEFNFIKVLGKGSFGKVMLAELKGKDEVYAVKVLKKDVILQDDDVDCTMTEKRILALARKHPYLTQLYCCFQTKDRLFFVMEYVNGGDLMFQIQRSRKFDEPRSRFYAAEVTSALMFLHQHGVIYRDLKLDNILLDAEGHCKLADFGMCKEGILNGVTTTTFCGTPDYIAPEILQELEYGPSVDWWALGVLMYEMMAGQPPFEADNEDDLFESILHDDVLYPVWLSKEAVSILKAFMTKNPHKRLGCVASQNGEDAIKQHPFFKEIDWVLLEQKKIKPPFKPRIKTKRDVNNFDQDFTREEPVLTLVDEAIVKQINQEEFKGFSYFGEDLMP
Experimental: as §1

ROCK1 = ROCK1 (Homo sapiens, UniProt Q13464)
Chain of ROCK1 (Q13464 whole entry): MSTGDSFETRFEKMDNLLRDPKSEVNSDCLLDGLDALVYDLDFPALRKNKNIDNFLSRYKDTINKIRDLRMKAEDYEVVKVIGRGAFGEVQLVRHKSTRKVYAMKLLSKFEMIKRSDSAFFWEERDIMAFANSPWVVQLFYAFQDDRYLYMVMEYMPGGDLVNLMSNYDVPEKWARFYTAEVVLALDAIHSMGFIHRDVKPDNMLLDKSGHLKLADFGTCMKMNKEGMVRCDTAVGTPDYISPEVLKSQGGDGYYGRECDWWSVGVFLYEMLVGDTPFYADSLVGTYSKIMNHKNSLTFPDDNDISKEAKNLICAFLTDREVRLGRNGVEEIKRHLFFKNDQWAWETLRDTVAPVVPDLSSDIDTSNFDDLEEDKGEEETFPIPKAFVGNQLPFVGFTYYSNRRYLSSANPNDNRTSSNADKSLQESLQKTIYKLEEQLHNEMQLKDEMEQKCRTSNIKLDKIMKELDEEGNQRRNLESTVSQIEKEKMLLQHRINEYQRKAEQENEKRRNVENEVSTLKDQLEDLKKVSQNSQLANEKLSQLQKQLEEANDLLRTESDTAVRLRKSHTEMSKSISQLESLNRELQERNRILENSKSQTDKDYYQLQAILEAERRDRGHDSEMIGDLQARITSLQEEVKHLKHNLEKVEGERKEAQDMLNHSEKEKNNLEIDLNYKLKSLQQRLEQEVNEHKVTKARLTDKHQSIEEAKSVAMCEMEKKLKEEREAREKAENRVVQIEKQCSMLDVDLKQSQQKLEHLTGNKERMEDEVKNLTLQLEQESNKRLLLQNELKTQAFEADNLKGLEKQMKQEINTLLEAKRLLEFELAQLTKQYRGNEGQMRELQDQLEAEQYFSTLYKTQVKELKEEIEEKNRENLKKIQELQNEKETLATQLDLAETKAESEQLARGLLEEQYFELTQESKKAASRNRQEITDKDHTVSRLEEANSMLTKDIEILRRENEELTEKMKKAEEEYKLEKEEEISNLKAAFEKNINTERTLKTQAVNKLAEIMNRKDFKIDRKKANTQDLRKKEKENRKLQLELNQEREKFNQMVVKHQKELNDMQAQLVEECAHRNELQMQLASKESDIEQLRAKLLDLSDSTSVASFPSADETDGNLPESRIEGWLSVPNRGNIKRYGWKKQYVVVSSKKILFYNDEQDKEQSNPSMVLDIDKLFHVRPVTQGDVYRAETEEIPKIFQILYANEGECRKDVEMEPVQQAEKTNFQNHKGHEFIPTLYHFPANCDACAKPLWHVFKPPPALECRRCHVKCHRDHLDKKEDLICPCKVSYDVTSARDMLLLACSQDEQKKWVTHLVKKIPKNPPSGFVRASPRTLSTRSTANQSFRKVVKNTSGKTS
Experimental: as §1

SGK (SGK1) = SGK (SGK1) (Homo sapiens, UniProt O00141)
Experimental: as §1

TNIK = TNIK (Homo sapiens, UniProt Q9UKE5)
Experimental: as §1

TYRO3 (RSE) = TYRO3 (RSE) (Homo sapiens, UniProt Q06418)
Experimental: as §1

Work on `C=CCNc1ncnc2ccc(Br)cc12` [SMER28] yielded an inhibition at 10 µM (ABL2 (Arg)) of 3%, an inhibition at 10 µM (AKT1 (PKB alpha)) of 3% and an inhibition at 10 µM (AKT2 (PKB beta)) of -8%. For the same compound, the inhibition at 10 µM (AMPK A2/B1/G1) was 12%, the inhibition at 10 µM (CAMK1 (CaMK1)) was 13% and the inhibition at 10 µM (CDK2/cyclin A) was 15%. For the same compound, the inhibition at 10 µM (DNA-PK) was 37%, the inhibition at 10 µM (ERBB2 (HER2)) was -1% and the inhibition at 10 µM (ERBB4 (HER4)) was 10%. The inhibition at 10 µM (FER) was 16%, the inhibition at 10 µM (FLT3) was 40% and the inhibition at 10 µM (GSK3B (GSK3 beta)) was 24%. For the same compound, the inhibition at 10 µM [1] was 34%, the inhibition at 10 µM (MINK1) was 45% and the inhibition at 10 µM (PAK7 (KIAA1264)) was 7%. For the same compound, the inhibition at 10 µM (PDK1) was -7%, the inhibition at 10 µM [2] was 23% and the inhibition at 10 µM (PIK3CG (p110 gamma)) was 65%. For the same compound, the inhibition at 10 µM (PRKACA (PKA)) was 10%, the inhibition at 10 µM (PRKCA (PKC alpha)) was 10% and the inhibition at 10 µM (PRKCE (PKC epsilon)) was 18%. The inhibition at 10 µM (ROCK1) was -13%, the inhibition at 10 µM (SGK (SGK1)) was 15% and the inhibition at 10 µM (TNIK) was 38%. It also gave an inhibition at 10 µM (TYRO3 (RSE)) of 11%.

From article PMC9288506, “Compounds activating VCP D1 ATPase enhance both autophagic and proteasomal neurotoxic protein clearance” (Nature Communications, 2022)
